Values of other authors, collected in US20090215818A1, “THIOZOLIDINEDIONE DERIVATIVES AS PI3 KINASE INHIBITORS” (SmithKline Beecham Corporation, priority 2006, published 2009).
Where two headings read alike, the source gives them in different places.

Legend:
Class I PI3-kinases = details: each of the Class I PI3-kinases
CK2 protein kinase = CK2 protein kinase (Homo sapiens, UniProt P68400)
CK2 protein kinase, sequence (P68400 whole entry): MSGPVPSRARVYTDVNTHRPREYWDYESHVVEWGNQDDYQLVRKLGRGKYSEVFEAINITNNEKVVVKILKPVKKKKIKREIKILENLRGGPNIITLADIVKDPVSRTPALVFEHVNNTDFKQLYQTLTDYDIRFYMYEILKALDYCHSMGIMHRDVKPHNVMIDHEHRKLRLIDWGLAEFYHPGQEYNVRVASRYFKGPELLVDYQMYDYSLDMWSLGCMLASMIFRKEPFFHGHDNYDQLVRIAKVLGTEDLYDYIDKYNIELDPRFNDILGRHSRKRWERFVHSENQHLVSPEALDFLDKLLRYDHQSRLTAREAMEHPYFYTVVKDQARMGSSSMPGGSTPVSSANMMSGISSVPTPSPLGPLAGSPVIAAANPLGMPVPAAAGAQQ

Row | Molecule | IC50 (Class I PI3-kinases; Fruman et al. 1998, read-out: IC50 against each of these PI3-kinases) [µM] | IC50 (CK2 protein kinase) [µM] | IC50 (Class I PI3-kinases; read-out: IC50 against each of the various Class I PI3-kinases) [µM]
1 | O=c1cc(N2CCOCC2)oc2c(-c3ccccc3)cccc12 [LY294002] | 15 to 20 | 5 to 10 | –
2 | wortmannin | – | – | 0.001 to 0.01
